Measurements as given in paper PMC8699473, “An Easily Expandable Multi-Drug LC-MS Assay for the Simultaneous Quantification of 57 Oral Antitumor Drugs in Human Plasma” (Cancers, 2021).

What was measured:
[1] = set-up: method as in supplement references [1-55] as printed per drug; settings: minimum steady-state blood plasma concentration after multiple dose administration; ref supplement references [1-55] per drug; cited from earlier work
[2] = Autosampler stability of ready for injection samples; assay type: physicochemical, human

Structure (SMILES) | cmin [1] | Autosampler (24h, 4°C) Accuracy [%] ([2]; validation standard 2xLLOV) | Autosampler (72h, 4°C) Accuracy [%] ([2]; validation standard 2xLLOV) | Autosampler (24h, 4°C) Accuracy [%] ([2]; validation standard LLOV) | Autosampler (72h, 4°C) Accuracy [%] ([2]; validation standard LLOV) | Autosampler (24h, 4°C) Accuracy [%] ([2]; validation standard MOV) | Autosampler (72h, 4°C) Accuracy [%] ([2]; validation standard MOV) | Autosampler (24h, 4°C) Accuracy [%] ([2]; validation standard ULOV) | Autosampler (72h, 4°C) Accuracy [%] ([2]; validation standard ULOV)
CC(=O)Nc1cccc(-n2c(=O)n(C3CC3)c(=O)c3c(Nc4ccc(I)cc4F)n(C)c(=O)c(C)c32)c1 [Trametinib] | 12.1 ng/mL | 105.8% | 101.8% | 101.7% | 100.1% | 103.1% | 103.5% | 97.7% | 97.0%
CCCS(=O)(=O)Nc1ccc(F)c(C(=O)c2c[nH]c3ncc(-c4ccc(Cl)cc4)cc23)c1F [Vemurafenib] | 39000 ng/mL | 103.5% | 102.3% | 112.7% | 109.4% | 99.5% | 101.8% | 104.1% | 99.4%
CC1(C)CCC(CN2CCN(c3ccc(C(=O)NS(=O)(=O)c4ccc(NCC5CCOCC5)c([N+](=O)[O-])c4)c(Oc4cnc5[nH]ccc5c4)c3)CC2)=C(c2ccc(Cl)cc2)C1 [Venetoclax] | 520 ng/mL | 106.9% | 104.7% | 106.3% | 103.3% | 100.0% | 102.3% | 103.7% | 102.7%
CCC1=C[C@@H]2CN(C1)Cc1c([nH]c3ccccc13)[C@@](C(=O)OC)(c1cc3c(cc1OC)N(C)[C@H]1[C@@](O)(C(=O)OC)[C@H](OC(C)=O)[C@]4(CC)C=CCN5CC[C@]31[C@@H]54)C2 [Vinorelbine] | 2.6 ng/mL | 89.9% | 87.3% | 65.0% | 67.9% | 97.7% | 99.6% | 102.4% | 99.5%
CS(=O)(=O)c1ccc(C(=O)Nc2ccc(Cl)c(-c3ccccn3)c2)c(Cl)c1 [Vismodegib] | 11367 ng/mL | 105.1% | 109.2% | 84.9% | 85.6% | 108.4% | 107.5% | 96.6% | 99.7%
